Source: patent US7122540B2, “2-Phenyl substituted imidazotriazinones as phosphodiesterase inhibitors” (Bayer HealthCare AG, priority 1997, dated 2006)

Legend:
PDE I = assay: Inhibition of the phosphodiesterases in vitro: Ca2+-calmodulin-stimulated PDE I; format: biochemical, porcine or, preferably, bovine; conditions: concentration at which the reaction rate is reduced by 50%; CaCl2 and calmodulin added
Procedure: (§1) The cGMP-stimulated PDE II, the cGMP-inhibited PDE III and the cAMP-specific PDE IV were isolated either from porcine or bovine heart myocardium. The Ca^2+-calmodulin-stimulated PDE I was isolated from porcine aorta, porcine brain or, preferably, from bovine aorta. The cGMP-specific PDE V was obtained from porcine small intestine, porcine aorta, human platelets and, preferably, from bovine aorta. Purification was carried out by anion exchange chromatography over MonoQ® Pharmacia, essentially following the method of M. Hoey and Miles D. Houslay, Biochemical Pharmacology, Vol. 40, 193–202(1990) and C. Lugman et al., Biochemical Pharmacology, Vol. 35, 1743–1751(1986).
(§2) The enzyme activity is determined using a test mixture of 100 ml in 20 mM tris/HCI-buffer pH 7.5 containing 5 mM MgCl2, 0.1 mg/ml of bovine serum albumin and either 800Bq[^3H]cAMP or [^3H]cGMP. The final concentration of the nucleotides in question is 10^−6 mol/l. The reaction is initiated by addition of the enzyme and the amount of enzyme is such that during the incubation time of 30 min, approximately 50% of the substrate are converted. To test the cGMP-stimulated PDE II, [^3H]cAMP is used as substrate and 10^−6 mol/l of non-labelled cGMP are added to the mnixture. To test the Ca^2+-calmodulin-dependent PDE I, 1 mM of CaCl2 and […] are added to the reaction mixture. The reaction is quenched by addition of […] of acetonitrile containing 1 mM cAMP and 1 mM AMP. 100 ml of the reaction mixture are separated by HPLC, and the cleavage products are determined quantitatively on-line using a continuous scintillation counter. The substance concentration measured is the concentration at which the reaction rate is reduced by 50%. Additionally, the “phosphodiesterase [^3H] cAMP-SPA enzyme assay” and the “phosphodiesterase [^3H] cGMP-SPA enzyme assay” from Amersham Life Science were used for testing. The test was carried out according to the test protocol of the manufacturer. To determine the activity of PDE II, the [^3H]cAMP SPA assay was used, and 10^−6M cGMP were added to the reaction mixture to activate the enzyme. To measure PDE I, 10^−7M calmodulin and 1 mM CaCl2 were added to the reaction mixture. PDE V was measured using the [^3H]cGMP SPA assay.

PDE II = molecular target: T1, PDE II (Bos taurus, UniProt P14099); assay: Inhibition of the phosphodiesterases in vitro: cGMP-stimulated PDE II; format: biochemical, porcine or bovine; conditions: [3H]cAMP substrate, 10^-6 mol/l cGMP added; concentration at which the reaction rate is reduced by 50%
T1 construct: isolated either from porcine or bovine heart myocardium; from tissue; host or cells: porcine or bovine heart myocardium
T1 sequence (P14099 1-921): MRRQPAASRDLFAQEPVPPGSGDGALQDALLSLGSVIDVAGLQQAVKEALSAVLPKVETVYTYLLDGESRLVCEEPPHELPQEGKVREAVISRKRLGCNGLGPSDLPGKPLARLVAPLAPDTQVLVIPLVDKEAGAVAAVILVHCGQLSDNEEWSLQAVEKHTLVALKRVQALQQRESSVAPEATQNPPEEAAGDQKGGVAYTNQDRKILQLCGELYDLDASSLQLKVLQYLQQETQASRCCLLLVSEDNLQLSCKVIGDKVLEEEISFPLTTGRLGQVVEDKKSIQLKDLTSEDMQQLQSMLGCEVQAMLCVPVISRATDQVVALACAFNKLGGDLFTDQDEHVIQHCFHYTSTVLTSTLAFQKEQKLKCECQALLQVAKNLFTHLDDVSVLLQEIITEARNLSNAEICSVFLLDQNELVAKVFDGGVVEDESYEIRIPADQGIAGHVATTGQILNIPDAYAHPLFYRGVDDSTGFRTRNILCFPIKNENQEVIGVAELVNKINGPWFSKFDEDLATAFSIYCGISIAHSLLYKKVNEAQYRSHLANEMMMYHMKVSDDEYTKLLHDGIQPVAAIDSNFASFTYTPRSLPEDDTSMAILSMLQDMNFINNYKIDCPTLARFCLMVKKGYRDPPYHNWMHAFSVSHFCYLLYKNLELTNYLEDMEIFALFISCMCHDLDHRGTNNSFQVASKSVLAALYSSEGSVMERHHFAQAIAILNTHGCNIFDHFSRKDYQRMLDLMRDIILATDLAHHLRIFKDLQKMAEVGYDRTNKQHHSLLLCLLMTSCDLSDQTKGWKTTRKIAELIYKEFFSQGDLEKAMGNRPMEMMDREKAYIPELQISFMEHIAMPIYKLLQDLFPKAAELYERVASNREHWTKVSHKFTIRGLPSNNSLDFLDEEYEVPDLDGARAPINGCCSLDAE
Procedure: as §1, §2

PDE V = molecular target: T2, PDE V (Bos taurus, UniProt Q28156); assay: Inhibition of the phosphodiesterases in vitro: cGMP-specific PDE V; format: biochemical, porcine, human or, preferably, bovine; conditions: [3H]cGMP substrate; concentration at which the reaction rate is reduced by 50%
T2 construct: Purification was carried out by anion exchange chromatography over MonoQ; from tissue; host or cells: porcine small intestine, porcine aorta, human platelets or, preferably, bovine aorta
Procedure: The cGMP-stimulated PDE II, the cGMP-inhibited PDE III and the cAMP-specific PDE IV were isolated either from porcine or bovine heart myocardium. The Ca^2+-calmodulin-stimulated PDE I was isolated from porcine aorta, porcine brain or, preferably, from bovine aorta. The cGMP-specific PDE V was obtained from porcine small intestine, porcine aorta, human platelets and, preferably, from bovine aorta.
as §2

## CCCc1nc(C)c2c(=O)[nH]c(-c3cc(S(=O)(=O)N4CCN(C)CC4)ccc3OCC)nn12 [Example 16, 2-[2-Ethoxy-5-(4-methyl-piperazine-1-sulphonyl)-phenyl]-5-methyl-7-propyl-3H-imidazo[5,1-f][1,2,4]triazin-4-one]
PDE I
  IC50: 300 nM
PDE II
  IC50: > 1000 nM
PDE V
  IC50: 2 nM

## CCCc1nc(C)c2c(=O)[nH]c(-c3cc(S(=O)(=O)N4CCN(CC)CC4)ccc3OCC)nn12 [Example 19, 2-[2-Ethoxy-5-(4-ethyl-piperazine-1-sulphonyl)-phenyl]-5-methyl-7-propyl-3H-imidazo[5,1-f][1,2,4]triazin-4-one]
PDE II
  IC50: > 1000 nM

## CCCc1nc(C)c2c(=O)[nH]c(-c3cc(S(=O)(=O)N4CCC(O)CC4)ccc3OCC)nn12 [Example 26, 2-[2-Ethoxy-5-(4-hydroxy-piperidine-1-sulphonyl)-phenyl]-5-methyl-7-propyl-3H-imidazo[5,1-f][1,2,4]triazin-4-one]
PDE I
  IC50: 100 nM
PDE II
  IC50: > 1000 nM
PDE V
  IC50: 1 nM

## CCCc1nc(C)c2c(=O)[nH]c(-c3cc(S(=O)(=O)N4CCN(CCO)CC4)ccc3OCC)nn12 [Example 27, 2-{2-Ethoxy-5-[4-(2-hydroxy-ethyl)-piperazine-1-sulphonyl]-phenyl}-5-methyl-7-propyl-3H-imidazo[5,1-f][1,2,4]triazin-4-one]
PDE I
  IC50: 200 nM
PDE II
  IC50: > 1000 nM
PDE V
  IC50: 3 nM

## CCCc1nc(C)c2c(=O)[nH]c(-c3cc(S(=O)(=O)N(CC)CC)ccc3OCC)nn12 [Example 32, N,N-Diethyl-4-ethoxy-3-(5-methyl-4-oxo-7-propyl-3,4-dihydro-imidazo[5,1-f][1,2,4]triazin-2-yl)benzenesulphonamide]
PDE I
  IC50: 100 nM
PDE II
  IC50: > 1000 nM
PDE V
  IC50: 4 nM

## CCCc1nc(C)c2c(=O)[nH]c(-c3cc(S(=O)(=O)N4CCOCC4)ccc3OCC)nn12 [Example 260]
PDE I
  IC50: 300 nM
PDE II
  IC50: > 1000 nM
PDE V
  IC50: 10 nM

## CCCc1nc(C)c2c(=O)[nH]c(-c3cc(S(=O)(=O)N(CCC)CCO)ccc3OCC)nn12 [Example 275]
PDE I
  IC50: 50 nM
PDE II
  IC50: > 1000 nM
PDE V
  IC50: 3 nM
